Source: patent US20010006673A1, “LUTEIN- CONTAINING SUPPLEMENT AND PROCESS FOR ENHANCING IMMUNE RESPONSE IN ANIMALS” (priority 1998, published 2001)

Parameters: species or system Beagle dogs
Details: dog, in vivo
Method: Fifty six female Beagle dogs (17 to 18 months old; average body weight 11.4±0.4 kg) were randomly assigned to be supplemented daily with 0, 5, 10 or 20 mg lutein for 17 weeks. The lutein contained 76.66% lutein and 5.23% zeaxanthin. The lutein supplement was resuspended in soybean oil to the appropriate concentration and 1 mL administered perorally at 0800 h daily. Food (200 g/dog/d) was offered immediately after the lutein supplementation. The basal diet shown in Table 1 below met or exceeded the requirements for all essential nutrients (NRC 1985).
All dogs were housed in 2×2 m pens (2 dogs/pen) in a temperature (20 to 22° C.) and light (14 h light) controlled facility. Body weight was recorded at weeks 0, 6, and 12.

CC1=C[C@H](O)CC(C)(C)[C@H]1/C=C/C(C)=C/C=C/C(C)=C/C=C/C=C(C)/C=C/C=C(C)/C=C/C1=C(C)C[C@@H](O)CC1(C)C [lutein]
Body weight average: 11.4 ± 0.4 kg
Effect on changes in body weight: did not significantly affect
